Data on 11 compounds can be found in ChEMBL document CHEMBL4680203, “Cladosins L-O, new hybrid polyketides from the endophytic fungus Cladosporium sphaerospermum WBS017” (Eur J Med Chem, 2020).

The test system of experiment [1] is L5178Y. Nature of the experiment: Cytotoxicity against mouse L5178Y cells assessed as cell viability at 10 ug/ml after 24 hrs by MTT assay relative to control. The class given is functional. The note with it: read-out: Activity. (In general: Tetrazolium dyes change colour on reduction, which living cells bring about.)
Experiment [2] concerns L5178Y. Briefly: Cytotoxicity against mouse L5178Y cells assessed as reduction in cell viability after 24 hrs by MTT assay. The class given is functional, cell-based.
The test system of experiment [3] is Mycobacterium tuberculosis. Nature of the experiment: Antitubercular activity against Mycobacterium tuberculosis H37Rv assessed as reduction in microbial growth by CLSI based broth microdilution method. It counts as functional. (In broth dilution the organism is exposed to a series of concentrations in liquid medium.)
For experiment [4], the system named is Staphylococcus aureus. Briefly: Antibacterial activity against Staphylococcus aureus ATCC 29213 assessed as reduction in microbial growth by CLSI based broth microdilution method. The class given is functional.
For another experiment, the system named is Acinetobacter baumannii. Briefly: […] activity against Acinetobacter baumannii BAA1605 assessed as reduction in microbial growth by CLSI based broth microdilution method. The class given is functional.
The next experiment deals with Pseudomonas aeruginosa. Nature of the experiment: Antibacterial activity against Pseudomonas aeruginosa 27853 assessed as reduction in microbial growth by CLSI based broth microdilution method. It counts as functional.
Experiment [5] concerns Staphylococcus aureus. Nature of the experiment: Antibacterial activity against Staphylococcus aureus ATCC 700699 assessed as reduction in microbial growth by CLSI based broth microdilution method. The class given is functional.
For another experiment, the system named is Enterococcus faecalis. Briefly: […] activity against Enterococcus faecalis ATCC 29212 assessed as reduction in microbial growth by CLSI based broth microdilution method. It counts as functional.
For experiment [6], the system named is Ustilago maydis. Briefly: Antifungal activity against Ustilago maydis AB33 assessed as diameter of zone inhibition at 50 ug by Kirby-Bauer disk diffusion method. The class given is functional. The note with it: Mycosarcoma maydis, read-out: DIZ.
Experiment [7] relates to Saccharomyces cerevisiae. Nature of the experiment: Antifungal activity against Saccharomyces cerevisiae ESM356-1 assessed as diameter of zone inhibition at 50 ug by Kirby-Bauer disk diffusion method. The note with it: read-out: DIZ. It counts as functional. On the technique in general: A growth-free zone around the sample is the usual read-out of agar diffusion tests.
The subject of experiment [8] is Ustilago maydis. Briefly: Antifungal activity against Ustilago maydis AB33 assessed as diameter of zone inhibition at 100 ug by Kirby-Bauer disk diffusion method. It counts as functional. The note with it: Mycosarcoma maydis.
For experiment [9], the system named is Saccharomyces cerevisiae. Briefly: Antifungal activity against Saccharomyces cerevisiae ESM356-1 assessed as diameter of zone inhibition at 100 ug by Kirby-Bauer disk diffusion method. The class given is functional, organism-based. The note with it: dose 100.0 µg.

A value given as a limit tells only on which side of the number the result lay.

For orientation: EC50 means the concentration that produces a half-maximal response. Consider `C/C=C1\NC(=O)[C@H](Cc2ccccc2)NC(=O)[C@H](C(C)C)NC(=O)[C@@H]([C@@H](C)CC)NC(=O)[C@@H](NC(=O)[C@H](NC(=O)[C@H](CCCN)NC(=O)[C@H]2CCCN2C(=O)[C@@H](NC(=O)C(NC(=O)[C@@H](NC(=O)[C@@H](NC(=O)CCCC(C)C)C(C)C)[C@@H](C)O)C(C)C)C(C)C)[C@@H](C)CC)[C@@H](C)OC(=O)[C@H](C(C)C)NC1=O` (some centres undefined), for which the viability at 10 µg/mL in the experiment on L5178Y [1] amounted to 0%. The EC50 in the experiment on L5178Y [2] was determined as 4.3 µM.
One may read the MIC as the lowest concentration found to suppress growth. With `CC(C)=C1NC(=O)C(=C(N)CCCC(C)O)C1=O` (mixture of isomers), the viability at 10 µg/mL with L5178Y [1] came to 50.9%. Besides, the MIC was 100 µM in experiment [3], above 100 µM in the experiment with Staphylococcus aureus [4], above 100 µM in the experiment with Acinetobacter baumannii and above 100 µM in the experiment on Pseudomonas aeruginosa.
As to `CC(C)=C1NC(=O)C(=C(N)CC(O)C[C@H](C)O)C1=O` (some centres undefined), the viability at 10 µg/mL in the experiment with L5178Y [1] worked out at 53.1%. Further, the MIC is 100 µM in [3], above 100 µM in the experiment with Staphylococcus aureus [4], above 100 µM in the experiment on Acinetobacter baumannii and above 100 µM in the experiment with Pseudomonas aeruginosa.
With `CC(C)=C1NC(=O)C(=Cc2ccc(O)cc2)C1=O` (mixture of isomers), in the experiment on L5178Y [1], the viability at 10 µg/mL came to 18.2%. In addition, the MIC in [3] was above 100 µM; in the experiment on Staphylococcus aureus [4], 50 µM; in the experiment with Staphylococcus aureus [5], 25 µM; with Acinetobacter baumannii, above 100 µM; with Pseudomonas aeruginosa it was above 100 µM; with Enterococcus faecalis, above 100 µM.
`CC(C)=C1NC(=O)C(=C(N)/C=C/CC(C)O)C1=O` (centres undefined): the viability at 10 µg/mL with L5178Y [1] is 32.8%. Further, the MIC is 100 µM in experiment [3], above 100 µM in the experiment on Staphylococcus aureus [4], above 100 µM with Acinetobacter baumannii and above 100 µM in the experiment with Pseudomonas aeruginosa.
As to `CC(C)=C1NC(=O)C2=C1O[C@@H](C[C@H](C)O)CC2=O`, the MIC (in experiment [3]; with Staphylococcus aureus [4]; in the experiment with Acinetobacter baumannii; in the experiment on Pseudomonas aeruginosa) was above 100 µM in each case.
Consider `CC(C)=C1NC(=O)C(=C(N)CC(O)C[C@@H](C)O)C1=O` (some centres undefined), for which the viability at 10 µg/mL in the experiment with L5178Y [1] stood at 82.2%. For the same compound, the MIC is 100 µM in [3], above 100 µM with Staphylococcus aureus [4], above 100 µM in the experiment on Acinetobacter baumannii and above 100 µM in the experiment on Pseudomonas aeruginosa.
For `CN[C@H]1C[C@@H](N)[C@H](O)[C@@H](O[C@@H]2O[C@H](CO)[C@H](O)[C@@H]3O[C@@]4(O[C@H]23)O[C@H]([C@H](N)CO)[C@H](O)[C@H](O)[C@H]4O)[C@@H]1O`, the zone of inhibition at 50 µg/disc with Ustilago maydis [6] was 8.3 mm; in the experiment with Saccharomyces cerevisiae [7] it was 8.7 mm.
As for NYSTATIN, the inhibition zone (IZ) in the experiment on Ustilago maydis [8] (dose 100.0 µg) was 32.7 mm; in the experiment with Saccharomyces cerevisiae [9] it was 7.8 mm.
In the case of `CC(C)=C1NC(=O)C2=C1O[C@H](C[C@H](C)O)CC2=O`, the viability at 10 µg/mL in the experiment on L5178Y [1] amounted to 100%. Moreover, the MIC (in [3]; in the experiment with Staphylococcus aureus [4]; in the experiment on Acinetobacter baumannii; with Pseudomonas aeruginosa) was above 100 µM each time.
For `CC(C)=C1NC(=O)C(=C2C=CCC(C)O2)C1=O` (centres undefined), in the experiment on L5178Y [1], the viability at 10 µg/mL was determined as 0%. The EC50 in the experiment with L5178Y [2] turned out to be 3.7 µM. The MIC (in experiment [3]; with Staphylococcus aureus [4]; in the experiment with Acinetobacter baumannii; in the experiment with Pseudomonas aeruginosa) was above 100 µM each time. Also, in the experiment with Ustilago maydis [8] (read-out: DIZ), the zone of inhibition at 100 µg/disc came to 9.7 mm.
